Measurements as given in patent US5093519A, “Vitamin D derivatives: therapeutic applications and applications to assays of metabolities of vitamin D” (priority 1988, dated 1992).
Where two headings read alike, the source gives them in different places. Each block holds one compound with its values, some of them ahead of it.

Key:
[1] = background knowledge, cited from earlier work
HL 60 cells = assay: Differentiation of HL 60 leukemic cells in vitro; format: cell-based; details: in words
Description: This is, in effect, directly confirmed in various biological tests (induction of the differentiation HL 60 leukemic cells, inhibition of lymphocyte proliferation, modification of the proliferation of cancer cells, calciotropic effect, and the like). FIGS. (3-4) illustrate the effect of different analogs on the differentiation of HL 60 leukemic cells.

human lymphocytes = assay: Inhibition of proliferation of PHA-stimulated human lymphocytes; format: cell-based; details: for inhibition of lymphocyte proliferation (in words): compound alone; for antagonist effect in lymphocyte proliferation test: 10^-10 M derivative added to 1,25-(OH)2 -vitamin D3; for inhibition of lymphocyte proliferation, less active than 1,25-(OH)2 -vitamin D3: fold less active than 1,25-(OH)2 -vitamin D3
Description: For example, if the proliferative response of human lymphocytes stimulated with PHA is 100 in the absence of vitamin D3, it is reduced to 66.5 in the presence of 10^-11 M 1,25-(OH)2 -vitamin D3 (Table 1). In the same test, the addition of 11-(2-hydroxyethyl)-1,25-(OH)2 -D3 induces no inhibition at 10^-10 M (102.6).
(§1) Bibliographic References 21, 22 and 23 served as references for the methodology of the tests of binding to DBP and to the receptor, and of the test of inhibition of lymphocyte proliferation.

[2] = tested on: intracellular receptor of vitamin D; details: background knowledge; cited from earlier work
[3] = tested on: vitamin D-binding protein (DBP); details: background knowledge, cited from earlier work
[4] = biological target: T1, intracellular receptor for vitamin D (Rattus norvegicus, UniProt P13053); assay: Binding to the intracellular receptor for vitamin D, displacement of [^3 H]-1,25-(OH)2 -vitamin D3 (rat duodenum); details: in words
T1 construct: from tissue; host or cells: rat duodenum
T1 sequence (P13053 1-423): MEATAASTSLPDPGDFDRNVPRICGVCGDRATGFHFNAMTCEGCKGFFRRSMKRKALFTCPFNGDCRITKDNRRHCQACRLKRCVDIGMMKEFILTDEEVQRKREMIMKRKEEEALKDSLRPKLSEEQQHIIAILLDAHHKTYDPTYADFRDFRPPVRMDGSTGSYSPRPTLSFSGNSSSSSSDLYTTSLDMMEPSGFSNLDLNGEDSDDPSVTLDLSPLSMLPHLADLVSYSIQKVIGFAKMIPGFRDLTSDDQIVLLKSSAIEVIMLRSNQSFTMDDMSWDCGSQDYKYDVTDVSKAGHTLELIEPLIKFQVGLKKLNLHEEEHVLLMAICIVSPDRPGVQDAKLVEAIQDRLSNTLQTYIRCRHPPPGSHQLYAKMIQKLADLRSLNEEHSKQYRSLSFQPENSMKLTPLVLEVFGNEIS
Description: Binding of 1,25-(OH)2 -vitamin D and two C^11 -derivatives to the intracellular receptor for vitamin D, measured by displacement of the binding of the tracer ]^3 H]-1,25-(OH)2 -vitamin D3.
The affinity, however, is approximately 100- to 200-fold lower than that of 1,25-(OH)2 -vitamin D3. This experiment is reproducible with receptors of different origins (rat duodenum in the example illustrated, but also calf thymus, human lymphocytes, and the like).
as §1

purified human DBP = biological target: T2, purified human DBP (Homo sapiens, UniProt P02774); assay: Binding to purified human DBP, displacement of [^3 H]-25-OH-vitamin D3; details: in words; FIG. 1
T2 construct: displacement of [3H]-25-OH-vitamin D3
T2 sequence (P02774 17-474): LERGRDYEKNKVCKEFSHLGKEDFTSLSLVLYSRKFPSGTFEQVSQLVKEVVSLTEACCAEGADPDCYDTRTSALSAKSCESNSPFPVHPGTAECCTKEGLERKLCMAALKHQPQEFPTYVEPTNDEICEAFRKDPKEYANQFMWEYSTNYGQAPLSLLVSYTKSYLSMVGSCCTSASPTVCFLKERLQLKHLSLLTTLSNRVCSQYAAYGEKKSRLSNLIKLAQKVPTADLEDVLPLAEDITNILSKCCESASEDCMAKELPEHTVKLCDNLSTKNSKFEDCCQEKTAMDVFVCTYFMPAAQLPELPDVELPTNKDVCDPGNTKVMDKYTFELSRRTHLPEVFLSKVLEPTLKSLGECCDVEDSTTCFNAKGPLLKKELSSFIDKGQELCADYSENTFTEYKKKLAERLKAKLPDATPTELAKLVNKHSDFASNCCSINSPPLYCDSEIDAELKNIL
Description: Binding to purified human DBP of 25-OH-vitamin D3, 1,25-(OH)2 -vitamin D3 and some C^11 -derivatives of these molecules, measured by displacement of the binding of the tracer [^3 H]-25-OH-vitamin D3.
This affinity is not modified with an 11-hydroxyethyl derivative. […] This property has been turned to good account for obtaining analogs which can be iodinated via their branch at C^11, and these derivatives have been used successfully, for example, for developing the first specific assay for 25-OH-vitamin D3 using an iodinated tracer.
as §1

Structure (SMILES): C=C1/C(=C\C=C2/CCC[C@]3(C)[C@@H]([C@H](C)CCCC(C)(C)O)CC[C@@H]23)C[C@@H](O)C[C@@H]1O [1,25-(OH)2-vitamin D3]
half-life [1]: short half-life | therapeutic index ([1]; listed as 1,25-(OH)2)-vitamin D): very narrow therapeutic index | therapeutic index ([1]; listed as 1,25-(OH)2 -Vitamin D): narrow | biological activity in a test of differentiation of HL 60 cells (HL 60 cells; FIGS. 3-4): active | lymphocyte proliferation (human lymphocytes; 1,25-(OH)2 -vitamin D3 10^-11 M alone, 100% in absence of vitamin D3, 1e-05 µM): 66.5% | lymphocyte proliferation (human lymphocytes; 1,25-(OH)2 -vitamin D3 10^-12 M alone, 100% in absence of vitamin D3, 1e-06 µM): 93.8% | inhibition of lymphocyte proliferation (in words) (human lymphocytes): marked inhibition of proliferation | affinity for the intracellular receptor of vitamin D [2]: high affinity | affinity for DBP [3]: lower affinity | affinity for DBP ([3]; listed as 1α,25-(OH)2 -vitamin D): low affinity

binding to the vitamin D3 receptor ([4]; FIG. 2): bind the vitamin D3 receptor
Structure (SMILES): C=C1/C(=C\C=C2/C[C@H](CCOC(=O)CCC(=O)O)C[C@]3(C)[C@@H]([C@H](C)CCCC(C)(C)O)CC[C@@H]23)C[C@@H](O)C[C@@H]1O [11β-(2-hemisuccinoyloxyethyl)]

Structure (SMILES): C=C1CC[C@H](O)C/C1=C/C=C1\CCC[C@]2(C)[C@@H]([C@H](C)CCCC(C)(C)O)CC[C@@H]12 [25-OH-vitamin D3]
biological activity in a test of differentiation of HL 60 cells (HL 60 cells; FIGS. 3-4): of low activity | affinity for the intracellular receptor of vitamin D [2]: low affinity | affinity for DBP [3]: high affinity

Structure (SMILES): C=C1/C(=C\C=C2/C[C@H](C)C[C@]3(C)[C@@H]([C@H](C)CCCC(C)(C)O)CC[C@@H]23)C[C@@H](O)C[C@@H]1O [compound 47, 1α,25-(OH)2-11α-methylvitamin D3]
biological activity in a test of differentiation of HL 60 cells (HL 60 cells; FIGS. 3-4, listed as 11α-methyl-1,25-(OH)2 -vitamin D3): strong activity, approaching that of 1,25-(OH)2 -vitamin D3 | biological activity in a test of differentiation of HL 60 cells (HL 60 cells; FIGS. 3-4, listed as methyl derivative): very active | binding to the vitamin D3 receptor ([4]; FIG. 2): affinity comparable to unsubstituted 1,25-(OH)2 -vitamin D3

Structure (SMILES): C=C1/C(=C\C=C2/C[C@H](c3ccccc3)C[C@]3(C)[C@@H]([C@H](C)CCCC(C)(C)O)CC[C@@H]23)C[C@@H](O)C[C@@H]1O [compound 48, 1α,25-(OH)2-11α-phenylvitamin D3]
biological activity in a test of differentiation of HL 60 cells (HL 60 cells; FIGS. 3-4, listed as 11α-phenyl-1,25-(OH)2 -vitamin D3): active | biological activity in a test of differentiation of HL 60 cells (HL 60 cells; FIGS. 3-4, listed as phenyl derivative): moderately active | binding to the vitamin D3 receptor ([4]; FIG. 2): binds the receptor better than the 11α-hydroxyethyl derivatives

binding to purified human DBP (purified human DBP): not modified | binding to the vitamin D3 receptor ([4]; FIG. 2, listed as 11α-(hydroxyethyl)): bind the vitamin D3 receptor | binding to the vitamin D3 receptor ([4]; FIG. 2, listed as 11α-(hydroxyethyl)-1,25-(OH)2 -vitamin D3): comparable
Structure (SMILES): C=C1/C(=C\C=C2/C[C@H](CCO)C[C@]3(C)[C@@H]([C@H](C)CCCC(C)(C)O)CC[C@@H]23)C[C@@H](O)C[C@@H]1O [compound 49, 11α-(2-OH-ethyl)-1,25-(OH)2-vitamin D3]
biological activity in a test of differentiation of HL 60 cells (HL 60 cells; FIGS. 3-4): of low activity | antagonist effect in lymphocyte proliferation test (human lymphocytes; listed as 11-(2-hydroxyethyl)-1,25-(OH)2 -D3): antagonizes its inhibitory effect | antagonist effect in lymphocyte proliferation test (human lymphocytes; listed as 11-(OH-ethyl) derivative): behaves as a partial antagonist of vitamin D3 | lymphocyte proliferation (human lymphocytes; 11-(2-OH-Ethyl) derivative 10^-10 M + 1,25-(OH)2 -vitamin D3 10^-11 M, 0.0001 µM): 91.8% | lymphocyte proliferation (human lymphocytes; 11-(2-OH-Ethyl) derivative 10^-10 M + 1,25-(OH)2 -vitamin D3 10^-12 M, 0.0001 µM): 98.5% | activity at 0.0001 µM (human lymphocytes; Homo sapiens, Lymphocyte, 10^-10 M alone, response is 100 in the absence of vitamin D3, read-out: proliferative response of lymphocytes): 103% | inhibition of lymphocyte proliferation (in words) (human lymphocytes): no inhibition | inhibition of lymphocyte proliferation, less active than 1,25-(OH)2 -vitamin D3 (human lymphocytes): 100 fold

binding to the vitamin D3 receptor ([4]; FIG. 2, listed as 11α-(2-hemisuccinoyloxyethyl vitamin D3)): comparable
Structure (SMILES): C=C1/C(=C\C=C2/C[C@H](CCOC(=O)CCC(=O)O)C[C@]3(C)[C@@H]([C@H](C)CCCC(C)(C)O)CC[C@@H]23)C[C@@H](O)C[C@@H]1O [compound 50, 11α-(2-HS-ethyl)-1,25-(OH)2-vitamin D3]
inhibition of lymphocyte proliferation, less active than 1,25-(OH)2 -vitamin D3 (human lymphocytes): approximately 1000 fold

Structure (SMILES): C=C1CCC(O)CC1=CC=C1CC(CCO)CC2(C)C1CCC2C(C)CCCC(C)(C)O (centres unmarked) [compound 56, 11-(2-hydroxyethyl)-25-OH-vitamin D3]
biological activity in a test of differentiation of HL 60 cells (HL 60 cells; FIGS. 3-4): of low activity

Structure (SMILES): C=C1CC[C@H](O)C/C1=C/C=C1\C[C@H](CCOC(=O)CCC(=O)O)C[C@]2(C)[C@@H]([C@H](C)CCCC(C)(C)O)CC[C@@H]12 [compound 57, 11-(2-HS-ethyl)-25-OH-vitamin D3]
binding to purified human DBP (purified human DBP): does not necessarily modify this affinity substantially
